# According to PMC6505199, “In vitro characterization of odorranalectin for peptide-based drug delivery across the blood–brain barrier” (BMC Neuroscience, 2019):
# What was measured:
# [1] = BSA-conjugated monosaccharides and cell-based assays; relative to L-fucose; cited from earlier work
# From the text: Previous studies reported the potential of lectins as drug carriers to specific sites of action based on their ability to selectively bind to specific sugar moieties of targeted cells. In addition, lectins could promote drug targeting into or across the cell barriers through vesicular transport. […] As also shown in Fig. 4, it is quite evident that the internalized OL is stable at all concentration tested further supporting the notion that this peptide is likely internalized into the cellular endosome but not the lysosomes.
# [2] = parameters: method as in PMID 18584053; settings: cited from earlier work
# mice = system: mice; parameters: method as in PMID 18584053; settings: cited from earlier work
# hCMEC/D3 cells = test: Cellular uptake/internalization of FAM-labelled peptide (lysate fluorescence normalized to protein; fluorescence imaging); format: in vitro ADME, human; settings: 3 h
# Procedure: All experiments were performed on human brain microvascular endothelial cell line (hCMEC/D3; Millipore Sigma, Massachusetts, US, cat# SCC066), an established and well characterized model of human BBB in vitro [11, 15, 16]. Cells (2.5 × 10^3/cm^2; passages 29–32) were cultured on sterile flasks, 96-well plates (for cell viability) and chamber slides (for immunofluorescence imaging) previously coated with Matrigel in HEPES buffered basal endothelial medium (EBM2) supplemented with various growth factors and 5% FBS using Lonza EGM2 MV BulletKit™ [15]. Following 80–90% confluence, cells were subjected to experimental conditions as listed below with serum concentration reduced to 1% FBS. Culture medium’s composition was adjusted (EBM2 medium buffered with HEPES and 1% BSA with no growth factors) to determine the effects of pH and serum (%; protein binding) on the cellular uptake of FAM-OL peptide. Basic pH was maintained with addition of 1 N sodium hydroxide to the medium, while acidic pH was established by addition of phosphoric acid. Cells were lysed with RIPA buffer at the end of treatment with OL peptide and the florescence intensity was measured using BioTek Synergy2 Multimode microplate reader using cellular lysates from cells treated with 0.1% DMSO as controls at 490/520 nm. […]
substance,measurement,setting,value
odorranalectin [OL],Binding to N-acetyl-d-galactosamine,[1],to a lesser degree
same,Binding to galactose,[1],to a lesser degree
same,Immunogenicity,[2],low immunogenicity
same,Toxicity profile in mice,mice,low toxicity profile
same,Concentration dependence of cellular uptake,"hCMEC/D3 cells; hCMEC/D3, 10-100 µg/mL, 37 °C, media 1% FBS, 0.1% DMSO, fluorescence imaging / lysate fluorescence 490/520 nm normalized per µg protein (BCA), N = 4-5",increased linearly
same,Cellular uptake compared to scramble peptide at identical concentrations,"hCMEC/D3 cells; hCMEC/D3, 37 °C, 1% FBS, total cell lysate fluorescence normalized per µg protein, side by side, P < 0.01",two to threefolds higher
